Assays:
PANC-1 cells = experiment: Matrigel transwell invasion assay, PANC-1; format: cell-based, human; settings: PANC-1 transfected with miR-10b precursor, erlotinib 2 μM; for miR-10b's effects on combined EGF-TGF-β1 actions on invasion: 1 nM EGF + 0.5 nM TGF-β1, 20 h, SB505124 10 μM
Protocol: (§1) Invasion and Migration Assays. miR-10b precursor and precursor control transfected cells (5×104) were plated in Matrigel pre-coated transwell chambers (BD Biosciences, San Jose, Calif.) and assays performed as previously reported. UO126 (1 μM) were from Alexis Biochemicals (San Diego, Calif.). Erlotinib (2 μM; Genentech, Inc., South San Francisco, Calif.), and LY294002 (10 μM; Calbiochem, San Diego, Calif.), were added to SF in the lower chamber, in the absence or presence of 1 nM EGF and/or 0.5 nM TGF-β1. Wound healing assays were performed as previously reported. Briefly, 24 hours after cell transfection with pre-miR-10b oligonucleotides, cells were serum starved overnight, and the monolayer was scratched with a 200 μL pipette tip generating two parallel wounds. Cells were then rinsed twice with HBSS and incubated for 24 h in SF media in the absence or presence of 1 nM EGF, 0.5 nM TGF-β1, or their combination, and migration was calculated as the percent change in the wound area.

COLO-357 cells = experiment: Matrigel transwell invasion assay, COLO-357; format: cell-based, human; settings: COLO-357 transfected with miR-10b precursor, erlotinib 2 μM; for miR-10b's effects on combined EGF-TGF-β1 actions on invasion: 1 nM EGF + 0.5 nM TGF-β1, 20 h, SB505124 10 μM
Protocol: as §1

[1] = 1 nM EGF, 20 h, LY294002 10 μM, UO126 1 μM

Compound	miR-10b's effects on combined EGF-TGF-β1 actions on invasion (PANC-1 cells)	miR-10b's effects on combined EGF-TGF-β1 actions on invasion (COLO-357 cells)	EGF-induced invasion in the presence of miR-10b (PANC-1 cells; [1])	EGF-induced invasion in the presence of miR-10b (COLO-357 cells; [1])
Cc1cccc(-c2[nH]c(C(C)(C)C)nc2-c2ccc3c(c2)OCO3)n1 [SB505124]	markedly attenuated	markedly attenuated		
C#Cc1cccc(Nc2ncnc3cc(OCCOC)c(OCCOC)cc23)c1 [erlotinib]	markedly attenuated	markedly attenuated	completely blocked	completely blocked

From patent US20150141342A1, “BLOOD BORNE miRNA SIGNATURE FOR THE ACCURATE DIAGNOSIS OF PANCREATIC DUCTAL ADENOCARCINOMA” (Indiana University Research and Technology Corp., priority 2013, published 2015)
